Patent publication US12649723B2, “Carbonohydrazonoyl dicyanide compounds comprising 2 or more aryl or heteroaryl connected via linker and use thereof” (KOREA INSTITUTE OF SCIENCE AND TECHNOLOGY, priority 2020, dated 2026)

Legend:
CYP3A4 = target: T1, CYP3A4 (Homo sapiens, UniProt P08684); test: Inhibitory effect on CYP coenzyme activity, human liver microsomes; assay type: in vitro ADME; details: compound 10 μM; human liver microsomes 0.25 mg/mL; substrate midazolam; 15 minutes
T1 construct: human liver microsomes (0.25 mg/mL); from tissue; host or cells: human liver microsomes
T1 sequence (P08684 whole entry): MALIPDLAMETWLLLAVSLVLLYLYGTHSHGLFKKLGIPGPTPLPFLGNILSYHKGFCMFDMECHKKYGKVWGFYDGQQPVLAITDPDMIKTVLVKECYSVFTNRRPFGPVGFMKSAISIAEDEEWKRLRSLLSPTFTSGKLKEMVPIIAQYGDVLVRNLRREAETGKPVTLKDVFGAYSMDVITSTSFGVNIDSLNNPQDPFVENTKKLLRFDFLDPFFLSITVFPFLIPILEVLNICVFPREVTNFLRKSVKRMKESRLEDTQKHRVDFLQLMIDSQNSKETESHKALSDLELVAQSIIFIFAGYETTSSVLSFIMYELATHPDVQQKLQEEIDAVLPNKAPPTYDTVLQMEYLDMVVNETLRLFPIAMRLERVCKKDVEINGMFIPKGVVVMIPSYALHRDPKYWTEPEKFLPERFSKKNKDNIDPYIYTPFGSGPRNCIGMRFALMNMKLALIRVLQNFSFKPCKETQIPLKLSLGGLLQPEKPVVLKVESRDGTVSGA
Method in brief: (§1)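 Activity remaining with 10 μM test compound was determined from MRM-quantified metabolite formation. The reaction used human microsomal protein (0.25 mg/mL) in pH 7.4 buffer with a mixed five-substrate cocktail, a 5-min 37 °C preincubation, and 15 min of NADPH-supported turnover.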

CYP2C19 = target: T2, CYP2C19 (Homo sapiens, UniProt P33261); test: as above; assay type: in vitro ADME; details: compound 10 μM; human liver microsomes 0.25 mg/mL; substrate S-mephenytoin; 15 minutes
T2 construct: human liver microsomes (0.25 mg/mL); from tissue; host or cells: human liver microsomes
T2 sequence (P33261 whole entry): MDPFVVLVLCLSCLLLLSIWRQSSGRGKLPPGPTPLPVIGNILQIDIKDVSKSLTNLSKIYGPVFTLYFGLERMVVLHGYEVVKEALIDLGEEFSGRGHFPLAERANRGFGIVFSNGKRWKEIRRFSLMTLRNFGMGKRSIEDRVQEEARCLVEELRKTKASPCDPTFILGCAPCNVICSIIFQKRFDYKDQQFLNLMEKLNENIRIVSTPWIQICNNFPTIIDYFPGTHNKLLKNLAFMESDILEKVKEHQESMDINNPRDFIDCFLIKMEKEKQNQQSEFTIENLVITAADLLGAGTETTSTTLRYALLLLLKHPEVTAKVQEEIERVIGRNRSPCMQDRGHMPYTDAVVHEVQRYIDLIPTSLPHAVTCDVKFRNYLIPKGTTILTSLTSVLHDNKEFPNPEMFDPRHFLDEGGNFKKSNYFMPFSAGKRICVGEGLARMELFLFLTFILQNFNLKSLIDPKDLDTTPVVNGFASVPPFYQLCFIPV
Method in brief: as §1

CYP1A2 = target: T3, CYP1A2 (Homo sapiens, UniProt P05177); test: as above; assay type: in vitro ADME; details: compound 10 μM; human liver microsomes 0.25 mg/mL; substrate phenacetin; 15 minutes
T3 construct: human liver microsomes (0.25 mg/mL); from tissue; host or cells: human liver microsomes
T3 sequence (P05177 1-516): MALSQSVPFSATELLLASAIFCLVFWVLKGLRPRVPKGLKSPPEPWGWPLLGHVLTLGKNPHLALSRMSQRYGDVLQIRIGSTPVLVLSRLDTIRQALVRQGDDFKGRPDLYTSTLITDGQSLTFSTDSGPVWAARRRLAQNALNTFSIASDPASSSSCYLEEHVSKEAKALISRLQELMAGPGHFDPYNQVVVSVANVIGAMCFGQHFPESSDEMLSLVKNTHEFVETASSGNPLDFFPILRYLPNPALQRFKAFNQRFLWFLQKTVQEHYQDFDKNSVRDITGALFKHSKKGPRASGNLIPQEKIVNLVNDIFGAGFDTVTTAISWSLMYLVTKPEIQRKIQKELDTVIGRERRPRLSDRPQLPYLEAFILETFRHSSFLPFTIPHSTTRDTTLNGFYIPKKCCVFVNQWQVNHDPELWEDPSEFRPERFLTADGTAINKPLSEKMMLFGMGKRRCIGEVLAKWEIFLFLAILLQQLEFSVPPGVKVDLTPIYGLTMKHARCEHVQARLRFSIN
Method in brief: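 Inhibition of probe metabolism was assessed at a single 10 μM compound concentration against 0 μM, using 0.25 mg/mL liver microsomes and cocktail substrates (midazolam 2.5 μM, dextromethorphan 5 μM, S-mephenytoin 100 μM, diclofenac 10 μM, phenacetin 50 μM), with a 15-min NADPH-driven reaction at 37 °C.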

CYP2C9 = target: T4, CYP2C9 (Homo sapiens, UniProt P11712); test: as above; assay type: in vitro ADME; details: compound 10 μM; human liver microsomes 0.25 mg/mL; substrate diclofenac; 15 minutes
T4 construct: human liver microsomes (0.25 mg/mL); from tissue; host or cells: human liver microsomes
T4 sequence (P11712 whole entry): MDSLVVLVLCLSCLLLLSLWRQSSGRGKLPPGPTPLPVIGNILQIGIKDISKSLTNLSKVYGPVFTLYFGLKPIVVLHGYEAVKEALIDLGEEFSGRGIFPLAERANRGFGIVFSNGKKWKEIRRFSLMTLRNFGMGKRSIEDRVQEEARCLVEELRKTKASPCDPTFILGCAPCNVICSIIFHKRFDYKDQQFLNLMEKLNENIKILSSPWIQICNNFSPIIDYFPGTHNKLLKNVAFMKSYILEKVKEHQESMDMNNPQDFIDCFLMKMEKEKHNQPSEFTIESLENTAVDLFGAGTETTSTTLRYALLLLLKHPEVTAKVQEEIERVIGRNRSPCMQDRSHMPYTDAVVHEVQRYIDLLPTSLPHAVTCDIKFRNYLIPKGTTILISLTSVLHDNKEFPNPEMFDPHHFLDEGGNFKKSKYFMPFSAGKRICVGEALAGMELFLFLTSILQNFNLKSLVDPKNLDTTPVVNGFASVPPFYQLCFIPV
Method in brief: as §1

CYP2D6 = target: T5, CYP2D6 (Homo sapiens, UniProt P10635); test: as above; assay type: in vitro ADME; details: compound 10 μM; human liver microsomes 0.25 mg/mL; substrate dextromethorphan; 15 minutes
T5 construct: human liver microsomes (0.25 mg/mL); from tissue; host or cells: human liver microsomes
T5 sequence (P10635 whole entry): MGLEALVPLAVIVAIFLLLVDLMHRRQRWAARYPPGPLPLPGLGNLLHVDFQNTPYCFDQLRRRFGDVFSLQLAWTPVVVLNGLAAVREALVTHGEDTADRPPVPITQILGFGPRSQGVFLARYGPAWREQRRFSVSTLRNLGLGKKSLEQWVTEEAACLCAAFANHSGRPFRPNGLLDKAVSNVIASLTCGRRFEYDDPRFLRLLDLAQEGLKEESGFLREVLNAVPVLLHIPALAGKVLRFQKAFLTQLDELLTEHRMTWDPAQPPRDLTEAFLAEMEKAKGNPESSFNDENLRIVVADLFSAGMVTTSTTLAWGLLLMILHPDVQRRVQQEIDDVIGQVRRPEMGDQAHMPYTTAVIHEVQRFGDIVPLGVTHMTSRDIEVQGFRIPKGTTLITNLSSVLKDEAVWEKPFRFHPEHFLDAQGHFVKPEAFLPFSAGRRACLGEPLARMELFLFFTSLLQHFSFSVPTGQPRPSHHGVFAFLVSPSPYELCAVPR
Method in brief: as §1

[1] = Liver microsome stability; assay type: in vitro ADME, human; details: amount of substrate remaining; compound 1 μM, 30 minutes, 37° C., NADPH
Method in brief: (§2)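 Human, dog, rat and mouse liver microsomes (0.25 mg/mL) with 1 μM compound in 0.1 M phosphate buffer pH 7.4, preincubated 5 min at 37° C, then incubated 30 min at 37° C with NADPH-generating system. Reaction stopped with acetonitrile containing internal standard; remaining parent quantified by LC-MS/MS.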

Tau-BiFC cells = test: Cell viability (cytotoxicity) in tau-BiFC cells, count of stained nuclei; assay type: cell-based; details: compound 10 μM; Forskolin-only group = 100% cell viability
Method in brief: (§3)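 Aggregation was induced by 30 μM Forskolin co-applied with test compound for 48 h, with screening at 1, 3, 10 μM and dose-response at 0.03–30 μM. Nuclei were stained with Hoechst (2 μg/mL) and counted against Forskolin-only wells for cytotoxicity. Inhibition came from BiFC fluorescence relative to Forskolin-only versus untreated cells, with IC50 by nonlinear regression.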

[2] = Liver microsome stability; assay type: in vitro ADME, dog; details: amount of substrate remaining; compound 1 μM, 30 minutes, 37° C., NADPH
Procedure: The stability of liver microsomes due to the compounds prepared according to Examples 1 to 175 was confirmed. Specifically, four types of liver microsomes (human, dog, rat, and mouse, each 0.25 mg/mL), a 0.1 M phosphate buffer solution (pH 7.4), and each of the compounds at a concentration of 1 μM were mixed and pre-cultured at 37° C. for 5 minutes and further cultured at 37° C. for 30 minutes together with an NADPH generation system solution added thereto. Thereafter, the reaction was terminated by adding an acetonitrile solution containing an internal standard material (chloropropamide) and centrifuged for 5 minutes (14,000 rpm, 4° C.), and then a supernatant was injected into an LC-MS/MS system for analysis of substrate drugs to thereby evaluate metabolic stability due to 8 types of compounds.
The amount of the substrate remaining after the reaction was analyzed using the Shimadzu Nexera XR system and TSQ Vantage (Thermo). In an HPLC column, Kinetex XB-C18 (2.1 mm×100 mm, particle size of 2.6 μm; Phenomenex, USA) was used, and mobile phases were (A) distilled water containing 0.1% formic acid and (B) acetonitrile containing 0.1% formic acid. Analyst software (version 1.6.3) and Xcalibur (version 1.6.1) were used for data analysis.

[3] = Liver microsome stability; assay type: in vitro ADME, mouse; details: amount of substrate remaining; compound 1 μM, 30 minutes, 37° C., NADPH
Method in brief: as §2

[4] = Liver microsome stability; assay type: in vitro ADME, rat; details: amount of substrate remaining; compound 1 μM, 30 minutes, 37° C., NADPH
Method in brief: as §2

tau protein = target: T6, tau protein (Homo sapiens, UniProt P10636); test: Tau-BiFC cell model: inhibition of tau protein aggregation; assay type: cell-based; details: for remaining activity at 10 µM: 48 h, compound 10 μM, BiFC fluorescence, Forskolin-only group = 100% tau protein-aggregated state, read-out: Response (% @10 μM); for IC50: Tau BiFC in cells, with Forskolin 30 μM, 48 hours
T6 construct: fused on or other part: Split fluorescent-protein halves for BiFC are fused to tau; In the published tau-BiFC line these are Venus VN173 and VC155
T6 sequence (P10636 2-441 isoform P10636-8 limits assumed): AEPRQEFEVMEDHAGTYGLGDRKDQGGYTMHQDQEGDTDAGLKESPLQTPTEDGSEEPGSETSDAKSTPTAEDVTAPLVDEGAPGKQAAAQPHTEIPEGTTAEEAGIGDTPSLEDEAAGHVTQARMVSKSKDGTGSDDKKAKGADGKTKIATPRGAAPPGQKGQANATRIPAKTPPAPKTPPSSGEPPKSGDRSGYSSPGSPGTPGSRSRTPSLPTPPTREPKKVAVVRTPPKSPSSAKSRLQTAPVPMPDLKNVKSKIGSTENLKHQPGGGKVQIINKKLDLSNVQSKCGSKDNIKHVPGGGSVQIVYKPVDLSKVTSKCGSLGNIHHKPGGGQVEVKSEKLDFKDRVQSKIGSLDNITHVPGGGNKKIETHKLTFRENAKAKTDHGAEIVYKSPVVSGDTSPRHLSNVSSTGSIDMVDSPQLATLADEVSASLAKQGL
Method in brief: as §3

SMILES | CYP3A4 (CYP3A4) | CYP2C19 (CYP2C19) | CYP1A2 (CYP1A2) | CYP2C9 (CYP2C9) | CYP2D6 (CYP2D6) | Human (%) [1] [%] | Cell viability (% @10 μM) (Tau-BiFC cells) [%] | Dog (%) [2] [%] | Mouse (%) [3] [%] | Rat (%) [4] [%] | remaining activity at 10 µM (tau protein) [%] | IC50 (tau protein) [nM]
Cc1cnc(C(=O)Nc2ccc(NN=C(C#N)C#N)cn2)cn1 [Compound 1, (6-(5-methylpyrazine-2-carboxamido)pyridin-3-yl)carbonohydrazonoyl dicyanide] | 85 | 74.6 | 80.7 | 71.1 | 93.1 | 86.5 | 94.3 | 66.9 | 21.2 | 56.7 | 0 | 400
Cc1cnc(C(=O)Nc2ccc(NN=C(C#N)C#N)c(C)c2)cn1 [Compound 6, (2-methyl-4-(5-methylpyrazine-2-carboxamido)phenyl)carbonohydrazonoyl dicyanide] | 62.2 | 64.8 | 85.2 | 38 | 75.7 | 77.5 | 61.3 | >100 | 74.8 | 88.4 | 43.9 | –
Cc1cc(F)cc(C(=O)Nc2ccc(NN=C(C#N)C#N)cn2)c1 [Compound 19, (6-(3-fluoro-5-methylbenzamido)pyridin-3-yl)carbonohydrazonoyl dicyanide] | 76.5 | 73.1 | 55.1 | 14.6 | 73 | 84.8 | 119.1 | 78.8 | 62.3 | 51.4 | 0 | 270
N#CC(C#N)=NNc1ccc(NC(=O)c2cccs2)nc1 [Compound 30, (6-(thiophene-2-carboxamido)pyridin-3-yl)carbonohydrazonoyl dicyanide] | 95.2 | 81.5 | 83.9 | 62.9 | 89.9 | 94.8 | 145 | 84.7 | 70.7 | 72.4 | 0 | 80
Cc1cncc(NC(=O)c2ccc(NN=C(C#N)C#N)cc2)n1 [Compound 46, (4-(6-methylpyrazin-2-ylcarbamoyl)phenyl)carbonohydrazonoyl dicyanide] | 85.5 | 83.1 | 97.8 | 70.4 | >100 | >100 | 155 | >100 | >100 | 86.3 | 0 | 860
N#CC(C#N)=NNc1ccc(NC(=O)c2ccc(C(F)(F)F)cc2)nc1 [Compound 27, (6-(4-(trifluoromethyl)benzamido)pyridin-3-yl)carbonohydrazonoyl dicyanide] | >100 | 78.3 | 76.8 | 23.7 | 76 | 86.9 | 122 | 3.6 | 5.4 | 8.8 | 0 | 370
Cc1cnc(C(=O)Nc2ccc(NN=C(C#N)C#N)c(F)c2)cn1 [Compound 3, (2-fluoro-4-(5-methylpyrazine-2-carboxamido)phenyl)carbonohydrazonoyl dicyanide] | 80.8 | 78.2 | 85.6 | 61.9 | 83.6 | 95.7 | 62.1 | 75.4 | 46.1 | 72.6 | 0 | 30
N#CC(C#N)=NNc1ccc(NC(=O)c2ccc(F)cc2)nc1 [Compound 16, (6-(4-fluorobenzamido)pyridin-3-yl)carbonohydrazonoyl dicyanide] | 86.9 | 78.6 | 71.4 | 40.3 | 80.8 | 91.6 | 66.2 | 59.5 | 67.3 | 61 | 0 | 110
Cc1cnc(NC(=O)c2ccc(NN=C(C#N)C#N)cc2)cn1 [Compound 45, (4-(5-methylpyrazin-2-ylcarbamoyl)phenyl)carbonohydrazonoyl dicyanide] | 96.7 | 83.4 | 95.5 | 80.8 | >100 | 96.8 | 140.5 | >100 | >100 | >100 | 0 | 1180
